The values that follow come from US20230134869A1, “CRYSTAL FORM OF FREE ALKALI OF NITROGEN-CONTAINING AROMATIC DERIVATIVES” (Shanghai Hansoh Biomedical Co., Ltd., priority 2020, published 2023).

The structures appear in SMILES notation. In brackets after ≈: the same amount, converted by molar mass.

Data set [1] is described as follows: Solubility experiment in different media (crystal form B of the Example 53 compound). Type of data set: physicochemical. Conditions: thermodynamic from solid, 37° C. The method, then: The solubility of crystal form B of (S)-1′-(6-amino-5-((2-amino-3-chloropyridin-4-yl)thio)-3-fluoropyrazin-2-yl)-1,3-dihydrospiro[indene-2,4′-piperidin]-1-amine in media such as water, Simulated Gastric Fluid (SGF), Fasted State Simulated Intestinal Fluid (FaSSIF) and Fed State Simulated Intestinal Fluid (FeSSIF) was compared, so as to provide a basis for evaluating the druggability.
About 2 mg of crystal form B of (S)-1′-(6-amino-5-((2-amino-3-chloropyridin-4-yl)thio)-3-fluoropyrazin-2-yl)-1,3-dihydrospiro[indene-2,4′-piperidin]-1-amine was suspended in different media for 24 hours, respectively.

Data set [2] in a line: Solid stability experiment under light (amorphous form, crystal forms A and B of the Example 53 compound). Type of data set: physicochemical. The method, then: (§1) The content was determined by HPLC using the external standard method. The related substance change was calculated by chromatographic peak area normalization method.
The nature of data set [3]: Hygroscopicity experiment (crystal form B of the Example 53 compound). Type of data set: physicochemical. The source says:
The hygroscopicity of crystal form B of the compound (S)-1′-(6-amino-5-((2-amino-3-chloropyridin-4-yl)thio)-3-fluoropyrazin-2-yl)-1,3-dihydrospiro[indene-2,4′-piperidin]-1-amine under different relative humidity conditions was investigated, so as to provide a basis for the crystal form screening and storage of the compound.
Crystal form B of (S)-1′-(6-amino-5-((2-amino-3-chloropyridin-4-yl)thio)-3-fluoropyrazin-2-yl)-1,3-dihydrospiro[indene-2,4′-piperidin]-1-amine was placed in saturated water vapor with different relative humidity to achieve dynamic equilibrium between the compound and water vapor, and the percentage of hygroscopic weight gain of the compound after the equilibrium was calculated.

The nature of data set [4]: Polymorphic screening and determination of stable crystal form (Example 53 compound), DSC comparison. Type of data set: physicochemical. The text has this:
The objective is to find stable crystal forms of (S)-1′-(6-amino-5-((2-amino-3-chloropyridin-4-yl)thio)-3-fluoropyrazin-2-yl)-1,3-dihydrospiro[indene-2,4′-piperidin]-1-amine by polymorphic screening.
Organic solvents and water with a certain solubility was chosen to suspend (S)-1′-(6-amino-5-((2-amino-3-chloropyridin-4-yl)thio)-3-fluoropyrazin-2-yl)-1,3-dihydrospiro[indene-2,4′-piperidin]-1-amine in the solvent system, and the mixture was stirred and slurried at room temperature for one week, and then centrifuged. The supernatant was discarded, and the solid was dried under vacuum (−0.1 Mpa) at 40° C. overnight. The XRPD, DSC and TGA of the solid was determined and compared.
Five crystal forms of (S)-1′-(6-amino-5-((2-amino-3-chloropyridin-4-yl)thio)-3-fluoropyrazin-2-yl)-1,3-dihydrospiro[indene-2,4′-piperidin]-1-amine, i.e., crystal forms A, B, C, D and E, were obtained by pulping, changing crystallization solvent and crystallization method.

Data set [5] is described as follows: Solid stability experiment: high temperature, high humidity (crystal form A of the Example 35 compound). The class given is physicochemical. The note with it: 60° C.; room temperature/92.5% RH; 50° C. and 75% RH; 5, 10, 20 and 30 days. The method, then:
as §1

A short description of data set [6]: Hygroscopicity experiment (crystal form A of the Example 35 compound). The class given is physicochemical.
Data set [7] in a line: Solubility experiment in different media (crystal form A of the Example 35 compound). Type of data set: physicochemical. The note with it: 37° C., 2 hours, buffers pH 1 to 8, water, FaSGF, FaSSIF, FeSSIF.
A short description of data set [8]: Crystal transformation investigation: pressure (tabletting) and grinding. The note with it: compressed into tablets; ground 15 minutes. The class given is physicochemical. The text has this: The tablets were mashed to powder and characterized by XRPD.
A short description of data set [9]: Pharmacokinetics study in rats of crystal form A of the Example 35 compound, single oral administration. The note with it: SD rats, intragastric, 10 mg/kg. The class given is in vivo.
The nature of data set [10]: Determination of stable crystal form by comparing DSC spectrums (Example 35 compound). Type of data set: physicochemical. The text has this: The objective is to find stable crystal forms of the compound (S)-8-(6-amino-5-((2-amino-3-chloropyridin-4-yl)thio)pyrazin-2-yl)-2-cyclopropyl-8-azaspiro[4.5]dec-2-en-1-amine by polymorphic screening.
Three crystal forms of (S)-8-(6-amino-5-((2-amino-3-chloropyridin-4-yl)thio)pyrazin-2-yl)-2-cyclopropyl-8-azaspiro[4.5]dec-2-en-1-amine, i.e., crystal forms A, B and C, were obtained by pulping, changing crystallization solvent and crystallization method.

The nature of data set [11]: Pharmacokinetics assay in mice. The class given is in vivo. Conditions: Balb/c mice. On the procedure: (§2) Balb/c mice were used as test animals.
(§3) The solution was subjected to ultrasound to obtain a clear solution. […] The concentration was 0.2 mg/mL.
After an overnight fast, male Balb/c mice were administered intravenously with the test compounds at an administration dose of 1 mg/kg and an administration volume of 5 mL/kg.
Blood was taken before administration and at 0 minute, 5 minutes, 15 minutes, 0.5 hour, 1.0 hour, 2.0 hours, 4.0 hours, 8.0 hours and 24.0 hours after administration. The blood samples were stored in EDTA-2K tubes, and centrifuged for 6 minutes at 6000 rpm, at 4° C. to separate the blood plasma. The plasma samples were stored at −80° C. The mice were fed 4 hours after administration.

Data set [12] can be described thus: Pharmacokinetics assay in rats. Type of data set: in vivo. Conditions: SD rats. The method, then: SD rats were used as test animals.
as §3
After an overnight fast, male SD rats (3 rats per group) were administered intravenously with the test compounds at an administration dose of 1 mg/kg and an administration volume of 5 mL/kg.
0.2 mL of blood was taken from jugular vein before administration and at 0 minute, 5 minutes, 15 minutes, 0.5 hour, 1.0 hour, 2.0 hours, 4.0 hours, 8.0 hours and 24.0 hours after administration. The blood samples were stored in EDTA-2K tubes, and centrifuged for 6 minutes at 6000 rpm, at 4° C. to separate the blood plasma. The plasma samples were stored at −80° C.

A short description of data set [13]: Tolerance assay in mice (body weight, abnormal responses). The class given is in vivo, Balb/c mice. Conditions: oral 10 mg/kg QD. On the procedure:
as §2
5 g of hydroxyethyl cellulose (HEC, CMC-Na, viscosity: 800-1200 Cps) was dissolved in 1000 mL of purified water, and 10 g of Tween 80 was added. The solution was mixed well to form a clear solution.
The solution was subjected to ultrasound for 10 minutes to obtain a colorless and clear solution with a concentration of 1 mg/mL.
After an overnight fast, Balb/c mice (3 male and 3 female) were administrated orally with the test compound at an administration dose of 10 mg/kg and an administration volume of 10 mL/kg.
The mice were weighed daily before and after administration, and abnormal responses were observed. The mice were fed 4 hours after administration.

Setting [14] is: Light 5000 ± 500 lux (sealed), Day 0.
The mark [15] stands for this setting: Light 5000 ± 500 lux (sealed), Day 5.
The mark [16] stands for this setting: Light 5000 ± 500 lux (sealed), Day 10.

For orientation: thermodynamic solubility means solubility found after equilibrating the solid with the medium.

`Nc1nc(N2CCC3(CC2)Cc2ccccc2[C@H]3N)c(F)nc1Sc1ccnc(N)c1Cl` [(S)-1′-(6-amino-5-((2-amino-3-chloropyridin-4-yl)thio)-3-fluoropyrazin-2-yl)-1,3-dihydrospiro[indene-2,4′-piperidin]-1-amine]: the thermodynamic solubility at 24 h is 2050 µg/mL (≈ 4340 µM) in data set [1] (simulated gastric fluid, SGF); 170 µg/mL (≈ 360 µM) in data set [1] (Fa (Fasted State Simulated Intestinal Fluid, FaSSIF)); 64 µg/mL (≈ 136 µM) in data set [1] (Fe (Fed State Simulated Intestinal Fluid, FeSSIF)); 1 µg/mL (≈ 2.12 µM) in data set [1] (water).
Turning to `Nc1nc(N2CCC3(CC2)Cc2ccccc2[C@H]3N)c(F)nc1Sc1ccnc(N)c1Cl` [crystal form B of (S)-1′-(6-amino-5-((2-amino-3-chloropyridi] [(S)-1′-(6-amino-5-((2-amino-3-chloropyridin-4-yl)thio)-3-fluoropyrazin-2-yl)-1,3-dihydrospiro[indene-2,4′-piperidin]-1-amine], in [2] (setting [14]), the “Content (HPLC) Day 0” value worked out at 98.34% and the Total impurities stood at 1.66%. Also, in data set [2] (setting [15]), the “Content (HPLC) Day 5” value stood at 97.28% and the Total impurities is listed as 2.72%. In [2] (Light 5000 ± 500 lux (sealed), Day 5 vs Day 0), this compound had a Total impurities gain of 1.06%. Also, in [2] (setting [16]), the “Content (HPLC) Day 10” value is 96.46% and the Total impurities is given as 3.54%. This compound displayed a Total impurities gain in data set [2] (Light 5000 ± 500 lux (sealed), Day 10 vs Day 0) of 1.88%. Moreover, the “Crystal form (XRPD) after one cycle of humidification and dehumidification” value in [3] (0 to 95% relative humidity) is reported as “the crystal form didn't transform”. In data set [3] (RH 80%), the Hygroscopic weight gain entry was “about 1.639%” and the Hygroscopicity result is listed as “slight hygroscopicity”. Also, the “Thermodynamic stability by comparing DSC spectrums of crystal forms A, B, C, D and E” value in data set [4] is on record as “best thermodynamic stability among the five crystal forms”.
On to `Nc1nc(N2CCC3(CC2)Cc2ccccc2[C@H]3N)c(F)nc1Sc1ccnc(N)c1Cl` [amorphous form of (S)-1′-(6-amino-5-((2-amino-3-chloropyridi] [(S)-1′-(6-amino-5-((2-amino-3-chloropyridin-4-yl)thio)-3-fluoropyrazin-2-yl)-1,3-dihydrospiro[indene-2,4′-piperidin]-1-amine], for which the “10-day total impurities gain” value in data set [2] (light 5000 lx±500 lx, 10 days) stood at 19.34%.
For `Nc1nc(N2CCC3(CC=C(C4CC4)[C@H]3N)CC2)cnc1Sc1ccnc(N)c1Cl` [(S)-8-(6-amino-5-((2-amino-3-chloropyridin-4-yl)thio)pyrazin-2-yl)-2-cyclopropyl-8-azaspiro[4.5]dec-2-en-1-amine], the Impurity increase result in [5] is listed as “less than 0.15%”. Besides, the “Crystal form (XRPD) after one cycle of humidification and dehumidification” value in [6] (0 to 95% relative humidity) was “the crystal form didn't transform”. In addition, in [6] (RH 80%), the Hygroscopic weight gain result is on record as “about 0.544%” and the Hygroscopicity result is recorded as “slight hygroscopicity”. Moreover, the “Solubility compared in different media” value in [7] is “better solubility under acidic conditions”. Also, in [8], the “Crystal transformation after tabletting and grinding (XRPD)” value is “didn't undergo crystal transformation”. Besides, the “Metabolic property (pharmacokinetics experiment in rats)” value in [9] is “good metabolic property”. In addition, in data set [10], the “Thermodynamic stability by comparing DSC spectrums of crystal forms A, B and C” value is recorded as “better thermodynamic stability”.
`Nc1nc(N2CCC3(CC2)Cc2ccccc2[C@H]3N)c(F)nc1Sc1ccnc(N)c1Cl` [Example 53, (S)-1′-(6-amino-5-((2-amino-3-chloropyridin-4-yl)thio)-3-fluoropyrazin-2-yl)-1,3-dihydrospiro[indene-2,4′-piperidin]-1-amine] returned a F in [11] of 71%. In data set [12], this compound showed an F of 118%. In data set [13] (female Balb/c mice), the “Body weight (Mean), Day 1” value came out at 22.07 g; the “Body weight (Mean), Day 16” value is 25.09 g; the “Body weight changes ΔW/W1 (Mean), Day 16” value is 13.80%. In addition, in [13] (male Balb/c mice), the “Body weight (Mean), Day 1” value is 23.01 g; the “Body weight (Mean), Day 16” value came to 28.30 g; the “Body weight changes ΔW/W1 (Mean), Day 16” value amounted to 23.25%.
